Several values for one entry are separate records, joined by “and”; a condition that tells them apart may be missing. Identical values can stand only once. Entries after “also recorded” stand apart in the source; their conditions may differ. A value given as a limit tells only on which side of the number the result lay.

The test system of data set [1] is WT mice. The data set can be described thus: H&E histology of TA muscle, wild type mice. Format: in vivo, mouse. To be noted: 8 months, 5-10 mg/kg/day. As to the method:
The dose used (5-10 mg/kg/day) is equivalent to a low to moderate dose in humans.
(§1) DMD is a chronic, progressively degenerative disease and consequently potential treatments need to be effective over many years. […] The calculated dose given to the mice was between 5-10 mg/kg/day. This would equate to 20-40 mg/day for a 10 yea old DMD boy weighing 30 kg, based on mouse to human equivalence calculations, which is within the recommended dose range of statins for children.
Muscles were imbedded in O.C.T compound and frozen in isopentane cooled in liquid nitrogen. Cryosections (10 μm thick) were placed on a glass side. Sections were fixed with either ice-cold methanol or 2% paraformaldehyde for 5 to 10 min. Some sections were stained with Haemotoxylin and Eosin (H & E) using standard procedures. For immunofluorescence, sections were incubated in blocking buffer (0.8% BSA and 1% fish gelatin in PBS) for 45 min. […] For fluorescence quantification (CD68, fibronectin and myosin heavy chains), images were converted to grayscale in Image J and a threshold applied to calculate the area of fluorescence as a percent of the total area of the section. Fibers with central nuclei were expressed as a percent of total fibers with detectable nuclei (ie. both central and peripheral).

In data set [2] the test system is mdx mice. Briefly: Voluntary running wheel activity over 2 days. It is filed as in vivo, mouse. The settings on record: P=0.13.
In data set [3] the test system is mdx mice. Briefly: H&E histology of tibialis anterior (TA) muscle. Format: in vivo, mouse. The settings on record: mdx Sim vs mdx Con, 8 months treatment.
The subject of data set [4] is mdx mice. Briefly: Plasma creatine kinase (CK) activity as measure of whole-body muscle damage. Format: in vivo, mouse.
Data set [5] has as its system immortalized mdx myoblast cell line. Briefly: Differentiation of immortalized mdx myoblasts into myotubes. It is filed as cell-based, mouse. The procedure:
However, the statin concentrations required to induce these deleterious effects in vitro are typically 1 μM or greater. These concentrations are considerably (100-1000 times) higher than those found in vivo in mice and humans. […] We then carried out an in vitro experiment using an immortalized mdx myoblast cell line.
Immortomouse mdx myoblasts were grown on gelatin coated plates and until 70% confluence in DMEM supplemented with 10% HS, 20% FBS, 0.5% chicken embryo extract and 20 units/ml of γ-interferon. […] Myotubes were washed in PBS, fixed in ice-cold methanol for 10 min, and H&E stained. Images of myotubes were taken with a Nikon inverted microscope (W.M. Keck Center, University of Washington).

Data set [6] concerns mdx mice. Briefly: Diaphragm specific force, ex vivo muscle strips. It is filed as in vivo, mouse. From the text:
Therefore, it is often difficult to fully evaluate the therapeutic potential of these compounds. When compared with results obtained with a clinically relevant dystrophin gene therapy approach, the magnitude of increased diaphragm force in Simvastatin-treated mice (25%) is quite impressive. Specifically, systemic delivery of a micro-dystrophin-expressing AAV vector to mdx mice provides a slightly lower (20%) average improvement in diaphragm specific force.
In mdx mice, the diaphragm is the most severely affected skeletal muscle and diaphragm dysfunction is a major cause of respiratory failure in DMD.
The diaphragm most closely recapitulates the functional deficits and fibrotic deposition that occur in DMD. […] The replacement of muscle fibers with fibrotic connective tissue is a major cause of impaired muscle force generation in DMD and therefore an important therapeutic target. […] Quantification of total collagen I levels in diaphragm muscles by hydroxyproline assay also indicated a 50% reduction in fibrosis for mdx Sim mice (FIG. 13E).
Diaphragm function, ex vivo, was measured as described previously. Briefly, diaphragm strips (2-3 mm wide) were perfused with a physiological solution bubbled with 95% O2-5% CO2. Stimulation was provided by two platinum electrodes, attached along the sides of the chamber. A lengthforce curve, established using 120 Hz isometric contractions (300 ms duration spaced 1 min apart, established the optimum length (length producing maximum tetanic force), which was later used to calculate the specific force (force divided by cross-sectional area).

Data set [7] has as its system CD68. Briefly: CD68 immunofluorescence of TA muscle sections (inflammation). Format: in vivo, mouse. The settings on record: mdx Sim vs mdx Con, 8 months treatment. The procedure:
Next, we quantified the extent of inflammation, a key feature of the dystrophic muscle pathology, by immunofluorescence of TA muscle sections with CD68, a marker of macrophages and other inflammatory cells.
Muscles were imbedded in O.C.T compound and frozen in isopentane cooled in liquid nitrogen. Cryosections (10 μm thick) were placed on a glass side. Sections were fixed with either ice-cold methanol or 2% paraformaldehyde for 5 to 10 min. Some sections were stained with Haemotoxylin and Eosin (H & E) using standard procedures. For immunofluorescence, sections were incubated in blocking buffer (0.8% BSA and 1% fish gelatin in PBS) for 45 min. Primary antibodies; Fibronectin (Sigma), CD68 (Abcam), Caveolin3 (BD Biosciences), and Myosin Heavy Chain 1, 2A and 2B (Developmental Studies Hybridoma Bank) were added for 1 hr 30 min at room temperature. AlexaFluor conjugated secondary antibodies (Life Technologies) were then added for 1 hr 30 min. In some experiments, DAPI was also added to detect nuclei. […] For fluorescence quantification (CD68, fibronectin and myosin heavy chains), images were converted to grayscale in Image J and a threshold applied to calculate the area of fluorescence as a percent of the total area of the section. Fibers with central nuclei were expressed as a percent of total fibers with detectable nuclei (ie. both central and peripheral). […]

Data set [8] concerns WT mice. Briefly: Plasma CK activity in wild type mice. It is filed as in vivo, mouse. The settings on record: 8 months treatment, vs untreated WT. The procedure: The activity levels of the mice were measured by voluntary running wheel activity over 2 days. […] Therefore, since CK was measured after the running wheel activity, the dramatic reduction in CK levels in Simvastatin-treated mdx mice is not related to exercise levels. […] Therefore, statins cause a robust reduction in CK release from dystrophic muscle both in long-term treated mice starting from a young age (3 weeks to 8 months), and in old mice (12 months) over a 2 month period.
as §1
Male dystrophin-deficient (mdx) and wild type (WT) mice on the C57BL/10ScSn background were used for all experiments, which were approved by the Institutional Animal Care and Use Committee (IACUC) at the University of Washington.
Simvastatin powder (TCI America) was formulated as a treatment in two ways; in the drinking water and in the food. […]
Plasma CK was evaluated as a measure of whole body muscle damage. […]

With `CCC(C)(C)C(=O)O[C@H]1C[C@@H](C)C=C2C=C[C@H](C)[C@H](CC[C@@H]3C[C@@H](O)CC(=O)O3)[C@H]21` [Simvastatin, simvastatin], the “muscle histology of WT mice (damage, inflammation)” value was “no effect; also recorded: no evidence of muscle damage or inflammation” in data set [1] and “no effect” in data set [1] (listed as simvastatin). Moreover, the “voluntary running wheel activity, more than control mdx mice” value in data set [2] amounted to 20%. Also, the “number of centrally nucleated (regenerated) muscle fibers” value in data set [3] is “comparable number”. Moreover, in data set [4] (mdx Sim vs mdx Con, oral 5-10 mg/kg/day for 8 months from 3 weeks of age), the “reduction in plasma creatine kinase (CK) activity level” value is listed as 85%. Further, the “reduction of CK levels compared to untreated mdx mice” value in data set [4] (mdx mice, 8 months, drinking water 10 mg/kg/day) is given as roughly 8 fold. Moreover, the “muscle differentiation, myotube formation” value in data set [5] (50 to 500 nM, 3 days) is given as “appeared similar to untreated cells”. In addition, the “doses at which simvastatin became more toxic, number of viable cells decreased” value in data set [5] (3 days of treatment) is no less than 1 µM. Further, the “improvement of diaphragm specific force” value in data set [6] (mdx Sim vs mdx Con, 8 months treatment, stimulation 1 to 120 Hz) is 25% and 20-25%; in data set [6] (mdx Sim vs mdx Con, 8 months treatment, stimulation 1 to 120 Hz, listed as simvastatin), 20-25%; in data set [6] (old mdx mice, 2 months treatment from 12 months of age, 10 to 120 Hz, vs untreated mdx), 20-30%. Also, in data set [7], the “reduction of inflammatory cell levels (CD68)” value is recorded as roughly 70%. Further, the “CK levels of WT mice” value in data set [8] is on record as “no difference; also recorded: no effect”; in data set [8] (listed as simvastatin), “no effect”.

For the origin of these results see US9974767B2, “Statins in the treatment of muscular dystrophies and myopathies” (University of Washington, priority 2014, dated 2018).
